In paper PMC6792352, “Limited Chemical Structural Diversity Found to Modulate Thyroid Hormone Receptor in the Tox21 Chemical Library” (Environmental Health Perspectives, 2019):
Structures can show the parent of a compound that is named as a salt. Positions of bridges follow the written chain, without caps; N, C: chain ends. Residues, ends and D or L forms follow the SMILES beside them.

Test: in vitro
Conditions: rat, gh3-tre-luc cells

Compound | CC50 at 24 h (AC50 (uM) modified / 1000) [µM] | other results
CCCCOC(=O)C(=O)Nc1cccc(-c2nnn[nH]2)c1 [Tazanolast] | > 50 | 
CCOC(=O)c1ccc(C#Cc2ccc3c(c2)C(C)(C)CCS3)nc1 [Tazarotene] | > 50 | 
C[C@]1(Cn2ccnn2)[C@H](C(=O)O)N2C(=O)C[C@H]2S1(=O)=O [Tazobactam sodium] | > 50 | 
CCc1ccc(C(=O)NN(C(=O)c2cc(C)cc(C)c2)C(C)(C)C)cc1 [Tebufenozide] | 2.75 | 
CCc1nn(C)c(C(=O)NCc2ccc(C(C)(C)C)cc2)c1Cl [Tebufenpyrad] | 53.4 | 
CCOP(=S)(Oc1cnc(C(C)(C)C)nc1)OC(C)C (stereo not shown) [Tebupirimfos] |  | CC50 at 24 h (AC50 (uM) modified / 1000, Tox21_110001=Tox21_300965, viability, 1 nM T3 present, 24 h): 52.3 µM
CNC(=O)N(C)c1nnc(C(C)(C)C)s1 [Tebuthiuron] |  | CC50 at 24 h (AC50 (uM) modified / 1000, Tox21_110001=Tox21_201451, viability, 1 nM T3 present, 24 h): > 90 µM
ClC1=C(Cl)C2(Cl)C3C(Cl)C(Cl)CC3C1(Cl)C2(Cl)Cl (stereo not shown) [Technical chlordane] |  | CC50 at 24 h (AC50 (uM) modified / 1000, Tox21_110001=Tox21_200290, viability, 1 nM T3 present, 24 h): 27.8 µM
O=C(NC(=O)c1c(F)cccc1F)Nc1cc(Cl)c(F)c(Cl)c1F [Teflubenzuron] | > 80 | 
O=c1[nH]c(=O)n([C@H]2CCCO2)cc1F [Tegafur] | > 90 | 
CCCCCNC(=N)N/N=C/c1c[nH]c2ccc(OC)cc12 [Tegaserod] | > 50 | 
Cc1scc2c1N(C(=O)CN1CCN(C)CC1)c1ccccc1NC2=O [Telenzepine] | > 50 | 
CC[C@H]1OC(=O)[C@H](C)C(=O)[C@H](C)[C@@H](O[C@@H]2O[C@H](C)C[C@H](N(C)C)[C@H]2O)[C@](C)(OC)C[C@@H](C)C(=O)[C@H](C)[C@H]2N(CCCCn3cnc(-c4cccnc4)c3)C(=O)O[C@]12C [Telithromycin] | > 50 | 
CCCc1nc2c(C)cc(-c3nc4ccccc4n3C)cc2n1Cc1ccc(-c2ccccc2C(=O)O)cc1 [Telmisartan] | > 50 | 
CC1CN(c2cc3c(cc2F)c(=O)c(C(=O)O)cn3-c2ccc(F)cc2F)CCN1 (stereo not shown) [Temafloxacin] | > 50 | 
CN1C(=O)C(O)N=C(c2ccccc2)c2cc(Cl)ccc21 (stereo not shown) [Temazepam] | > 90 | 
CS(=O)(=O)c1ccc(C(=O)C2C(=O)CCCC2=O)c(Cl)c1COCC(F)(F)F [Tembotrione] | > 90 | 
COP(=S)(OC)Oc1ccc(Sc2ccc(OP(=S)(OC)OC)cc2)cc1 [Temephos] |  | CC50 at 24 h (AC50 (uM) modified / 1000, Tox21_110001=Tox21_112075, viability, 1 nM T3 present, 24 h): > 50 µM; CC50 at 24 h (AC50 (uM) modified / 1000, Tox21_110001=Tox21_301778, viability, 1 nM T3 present, 24 h): > 90 µM
CCOC(=O)[C@H](CCc1ccccc1)N[C@H]1CS[C@H](c2cccs2)CN(CC(=O)O)C1=O [Temocapril hydrochloride] | > 50 | 
Cn1nnc2c(C(N)=O)ncn2c1=O [Temozolomide] | > 50 | 
CO[C@H]1C[C@@H]2CC[C@@H](C)[C@@](O)(O2)C(=O)C(=O)N2CCCC[C@H]2C(=O)O[C@H]([C@H](C)C[C@@H]2CC[C@@H](OC(=O)C(C)(CO)CO)[C@H](OC)C2)CC(=O)[C@H](C)/C=C(\C)[C@@H](O)[C@@H](OC)C(=O)[C@H](C)C[C@H](C)/C=C/C=C/C=C/1C [Temsirolimus] | > 50 | 

Compound | CC50 at 24 h (AC50 (uM) modified / 1000) [µM] | other results
CC(N)Cc1ccc2c(c1)OCO2 (stereo not shown) [Tenamfetamine hydrochloride] |  | CC50 at 24 h (AC50 (uM) modified / 1000, Tox21_110001=Tox21_113529, viability, 1 nM T3 present, 24 h): > 50 µM
COc1ccc2[nH]c([S+]([O-])Cc3ncc(C)c(OC)c3C)nc2n1 (stereo not shown) [Tenatoprazole] | 41.8 | 
NC(=O)N1C(=O)/C(=C(\O)c2cccs2)c2cc(Cl)ccc21 [Tenidap] | 41.8 | 
COc1cc([C@@H]2c3cc4c(cc3[C@@H](O[C@@H]3O[C@@H]5CO[C@@H](c6cccs6)O[C@H]5[C@H](O)[C@H]3O)[C@H]3COC(=O)[C@H]23)OCO4)cc(OC)c1O [Teniposide] | 4.5 | 
c1csc(C2(N3CCCCC3)CCCCC2)c1 [Tenocyclidine] |  | CC50 at 24 h (AC50 (uM) modified / 1000, Tox21_110001=Tox21_111833, viability, 1 nM T3 present, 24 h): > 50 µM
CC(C)OC(=O)OCOP(=O)(CO[C@H](C)Cn1cnc2c(N)ncnc21)OCOC(=O)OC(C)C [Tenofovir disoproxil fumarate] | > 50 | 
O=C(Nc1ncc([N+](=O)[O-])s1)c1cccs1 [Tenonitrozole] | 30.4 | 
CC(=O)Nc1ccc(NC(=S)NC(=O)c2ccc(C(C)(C)C)cc2)cc1 [Tenovin-1] | 7.56 | 
CN1C(C(=O)Nc2ccccn2)=C(O)c2sccc2S1(=O)=O [Tenoxicam] | > 20 | 
O=C1/C(=C/c2cccs2)CCC/C1=C\c1cccs1 [Tenylidone] | > 50 | 
CC/C(=N\OC/C=C/Cl)C1=C(O)CC(C2CCOCC2)CC1=O (stereo not shown) [Tepraloxydim] | > 90 | 
CC(=O)CC/C=C(\C)CC/C=C(\C)CC/C=C(\C)CCC=C(C)C [Teprenone] | > 50 | 
COc1cc2nc(N3CCN(C(=O)C4CCCO4)CC3)nc(N)c2cc1OC (stereo not shown) [Terazosin hydrochloride] | > 50 | 
Cc1[nH]c(=O)n(C(C)(C)C)c(=O)c1Cl [Terbacil] | > 90 | 
CN(C/C=C/C#CC(C)(C)C)Cc1cccc2ccccc12 [Terbinafine] | 38.3 | 
CNC(=O)Oc1c(C(C)(C)C)cc(C)cc1C(C)(C)C [Terbucarb] |  | CC50 at 24 h (AC50 (uM) modified / 1000, Tox21_110001=Tox21_302210, viability, 1 nM T3 present, 24 h): > 90 µM
CCOP(=S)(OCC)SCSC(C)(C)C [Terbufos] |  | CC50 at 24 h (AC50 (uM) modified / 1000, Tox21_110001=Tox21_201634, viability, 1 nM T3 present, 24 h): > 90 µM
CC(C)(C)NCC(O)c1cc(O)cc(O)c1 (stereo not shown) [Terbutaline hemisulfate] | > 50 | 
CCNc1nc(Cl)nc(NC(C)(C)C)n1 [Terbutylazine] | > 90 | 
O=C(O)c1ccc(C(=O)O)cc1 [Terephthalic acid] | > 90 | 
CCN(CC)C(=O)N[C@H]1C[C@@H]2c3cccc4[nH]cc(c34)C[C@H]2N(C)C1 [Terguride] | > 50 | 

Compound | CC50 at 24 h (AC50 (uM) modified / 1000) [µM] | other results
NCCCC[C@H](NC(=O)[C@@H]1CCCN1C(=O)[C@@H]1CSSC[C@H](NC(=O)CNC(=O)CNC(=O)CN)C(=O)N[C@@H](Cc2ccc(O)cc2)C(=O)N[C@@H](Cc2ccccc2)C(=O)N[C@@H](CCC(N)=O)C(=O)N[C@@H](CC(N)=O)C(=O)N1)C(=O)NCC(N)=O [Terlipressin] (H-GGGCYFQNCPKG-NH2; disulfide 4-9) | > 50 | 
CC(CC(c1ccccc1)c1ccccc1)NC(C)(C)C (stereo not shown) [Terodiline hydrochloride] | 11 | 
CC1(O)CCC(C(C)(C)O)CC1 (stereo not shown) [Terpin] | > 50 | 
CC1=CCC(=C(C)C)CC1 [Terpinolene] | > 90 | 
CCO[C@@H](Cc1ccc(OCCc2ccc(OS(C)(=O)=O)cc2)cc1)C(=O)O [Tesaglitazar] | > 50 | 
CCN(CC)CCOc1ccc(Cc2ccccc2)cc1 [Tesmilifene] | 10.9 | 
C[C@]12C=CC(=O)C=C1CC[C@@H]1[C@@H]2CC[C@]2(C)OC(=O)CC[C@@H]12 [Testolactone] |  | CC50 at 24 h (AC50 (uM) modified / 1000, Tox21_110001=Tox21_111576, viability, 1 nM T3 present, 24 h): > 50 µM
C[C@]12CC[C@H]3[C@@H](CCC4=CC(=O)CC[C@@]43C)[C@@H]1CC[C@@H]2OC(=O)CCc1ccccc1 [Testosterone 17-phenylpropionate] |  | CC50 at 24 h (AC50 (uM) modified / 1000, Tox21_110001=Tox21_113116, viability, 1 nM T3 present, 24 h): > 90 µM
CCCCCCCCCC(=O)O[C@H]1CC[C@H]2[C@@H]3CCC4=CC(=O)CC[C@]4(C)[C@H]3CC[C@]12C [Testosterone decanoate] |  | CC50 at 24 h (AC50 (uM) modified / 1000, Tox21_110001=Tox21_111863, viability, 1 nM T3 present, 24 h): > 50 µM
CC(C)CCC(=O)O[C@H]1CC[C@H]2[C@@H]3CCC4=CC(=O)CC[C@]4(C)[C@H]3CC[C@]12C [Testosterone isocaproate] |  | CC50 at 24 h (AC50 (uM) modified / 1000, Tox21_110001=Tox21_112669, viability, 1 nM T3 present, 24 h): 35.3 µM
CCC(=O)O[C@H]1CC[C@H]2[C@@H]3CCC4=CC(=O)CC[C@]4(C)[C@H]3CC[C@]12C [Testosterone propionate] |  | CC50 at 24 h (AC50 (uM) modified / 1000, Tox21_110001=Tox21_110330, viability, 1 nM T3 present, 24 h): > 20 µM; CC50 at 24 h (AC50 (uM) modified / 1000, Tox21_110001=Tox21_302270, viability, 1 nM T3 present, 24 h): 55 µM
C[C@]12CC[C@H]3[C@@H](CCC4=CC(=O)CC[C@@]43C)[C@@H]1CC[C@@H]2O [Testosterone] |  | CC50 at 24 h (AC50 (uM) modified / 1000, Tox21_110001=Tox21_200689, viability, 1 nM T3 present, 24 h): > 90 µM
CCCCCCCC[N+](CCCCCCCC)(CCCCCCCC)CCCCCCCC [Tetra-N-octylammonium bromide] | 2.56 | 
C=CCOc1c(Br)cc(C(C)(C)c2cc(Br)c(OCC=C)c(Br)c2)cc1Br [Tetrabromobisphenol A diallyl ether] | > 50 | 
CC(C)(c1cc(Br)c(OCC(Br)CBr)c(Br)c1)c1cc(Br)c(OCC(Br)CBr)c(Br)c1 (stereo not shown) [Tetrabromobisphenol A-bis(2,3-dibromopropyl ether)] | > 50 | 
CCOC(=O)c1ccccc1C(=C1C=C(Br)C(=O)C(Br)=C1)c1cc(Br)c(O)c(Br)c1 [Tetrabromophenolphthalein ethyl ester] | 42.7 | 
O=C1OC(=O)c2c(Br)c(Br)c(Br)c(Br)c21 [Tetrabromophthalic anhydride] | > 90 | 
CCCC[N+](CCCC)(CCCC)CCCC [Tetrabutylammonium bromide] | > 90 | 
CCCC[P+](CCCC)(CCCC)CCCC [Tetrabutylphosphonium bromide] | > 90 | 
CCCCN(CCCC)C(=S)SSC(=S)N(CCCC)CCCC [Tetrabutylthiuram disulfide] | > 90 | 
